The source made the active and inactive calls. How the calls were made is not given here.
Experiment: Quorum luxo inducers, light production, v cholerae bh1651 luxod47e, confirmatory dose response (AID 624254)
Conditions: V. cholerae BH1651 luxOD47E, luciferase light induction, 6 h; at 50 µM (top of the series)

COC(=O)Cc1c(C)c2ccc(OC(=O)c3ccccc3)cc2oc1=O
activation (light increase): inactive

Cc1ccc(C(=O)N(C)CC(=O)Nc2ccc(N3CCOCC3)cc2)s1
activation (light increase): inactive

COc1ccccc1CCN1CCCC(CN(C)C(=O)c2ccco2)C1 (stereo not given)
activation (light increase): inactive

Cc1nnc(NC(=O)c2cccc(S(=O)(=O)N3CCc4ccccc43)c2)s1
activation (light increase): inactive

Cc1cc(C(=O)CSc2nnc(-c3ccco3)o2)c(C)n1CC1COc2ccccc2O1 (stereo not given)
activation (light increase): inactive

O=C(c1cc(-c2cccs2)nn1-c1ccccc1)N1CCN(S(=O)(=O)c2ccccc2)CC1
activation (light increase): inactive

Cc1cc(C)c(S(=O)(=O)Nc2ccccn2)c(C)c1
activation (light increase): inactive

O=C(c1ccc2c(c1)OCO2)N(Cc1ccco1)C1(C(=O)NC2CCCCC2)CCCCC1
activation (light increase): inactive

O=C(CN1C(=O)CSC1=O)NC1CCCCC1
activation (light increase): inactive

COc1cc(NC(=O)c2ccccc2)c(OC)cc1NC(=O)CN1C(=O)N(C)C2(CCCCC2)C1=O
activation (light increase): inactive

CCOc1ccc(Nc2ccc3nonc3c2[N+](=O)[O-])cc1
activation (light increase): inactive

Cc1ccc(C)c(S(=O)(=O)Nc2ccc(-n3cnnn3)cc2)c1
activation (light increase): inactive

CCOC(=O)C1CCN(C(=O)C2c3ccccc3C(=O)N(C)C2c2ccc(OC)cc2)CC1 (stereo not given)
activation (light increase): inactive

CN(C)S(=O)(=O)c1cccc(NC(=O)COC(=O)c2ccc(Br)o2)c1
activation (light increase): inactive

Cc1noc(C)c1NC(=O)Nc1cccc2c1O[C@@H](CN(C)S(=O)(=O)c1cccs1)[C@@H](C)CN([C@@H](C)CO)C2=O
activation (light increase): inactive

Cn1cnc(S(=O)(=O)Nc2ccc(-c3ccccc3)cc2)c1
activation (light increase): inactive

FC(F)Oc1ccccc1NC(=S)NCc1ccco1
activation (light increase): inactive

COc1ccc(CNC(=O)CSc2nc3c(oc4ccccc43)c(=O)n2CC2CCCO2)cc1 (stereo not given)
activation (light increase): inactive

Cn1cnc(S(=O)(=O)Nc2ccc(F)cc2)c1
activation (light increase): inactive

CCn1nnnc1NCc1ccc(N2CCCC2)cc1
activation (light increase): inactive

O=C(c1cccc(S(=O)(=O)N2CCc3ccccc32)c1)N1CCOCC1
activation (light increase): inactive

O=c1[nH]c2ccccc2n1Cc1ccc(Cl)cc1
activation (light increase): inactive

COc1ccc(OCc2nnc3n2N=C(c2ccc(OC)cc2)CS3)cc1
activation (light increase): inactive

COC(=O)Cn1nc(-c2ccccc2)c2ccccc21
activation (light increase): inactive

COc1ccc(S(=O)(=O)Nc2ccc(S(=O)(=O)N3CCOCC3)cc2)cc1C
activation (light increase): inactive

Cc1cc(OC(F)F)ccc1NC(=S)NCCc1ccccc1
activation (light increase): inactive

C[C@H](CO)N1C[C@H](C)[C@H](CN(C)S(=O)(=O)c2ccccc2)Oc2c(NC(=O)Nc3ccc4c(c3)OCO4)cccc2C1=O
activation (light increase): inactive

CCCOc1ccc(NS(=O)(=O)c2cn(C)cn2)cc1
activation (light increase): inactive

Cc1ccc(NS(=O)(=O)c2cn(C)cn2)cc1
activation (light increase): inactive

CC(C)N1CCc2c(sc(NC(=O)c3ccc4ccccc4c3)c2C(N)=O)C1
activation (light increase): inactive

CCOc1ccc(C(=O)OCC(=O)N2CCCC2)cc1
activation (light increase): inactive

CCC(C)NS(=O)(=O)c1ccc(S(=O)(=O)Nc2cc3c(cc2C(C)=O)OCO3)cc1 (stereo not given)
activation (light increase): inactive

COCCNc1nc2c(c(=O)n(Cc3ccc(OC)cc3)c(=O)n2C)n1C
activation (light increase): inactive

COc1ccc(N2CCN(CC(=O)Nc3c(C)cc(C)cc3C)CC2)cc1
activation (light increase): inactive

CCOC(=O)c1c(NC(=O)COC(=O)Cc2c[nH]c3ccccc23)sc(C(=O)N(C)C)c1C
activation (light increase): inactive

Cc1noc(C)c1NC(=O)Nc1cccc2c1O[C@H](CN(C)S(=O)(=O)c1cccs1)[C@H](C)CN([C@@H](C)CO)C2=O
activation (light increase): inactive

Cc1ccc(C(=O)OCC(=O)NC2CCCC2)cc1
activation (light increase): inactive

O=[N+]([O-])c1ccc(S(=O)(=O)NCC(c2cccnc2)N2CCc3ccccc32)cc1 (stereo not given)
activation (light increase): inactive

COc1cc(NC(=O)CN2C(=O)NC(c3ccccc3)(c3ccccc3)C2=O)cc(OC)c1
activation (light increase): inactive

COc1ccc(NC(=O)C(=O)NCC2CCCN2S(=O)(=O)c2ccc(C)cc2)cc1 (stereo not given)
activation (light increase): inactive

CC1(C)NC(=O)N(CCOCCOc2ccc3ccccc3c2Br)C1=O
activation (light increase): inactive

CCCCNC(=O)CN(c1cccc(Br)c1)S(C)(=O)=O
activation (light increase): inactive

Cc1cc(C)n2cc(COc3ccc4ccccc4c3)nc2n1
activation (light increase): inactive

CCNC(=O)OCc1cn(-c2ccccc2)nn1
activation (light increase): inactive

Cc1ccc(Oc2nccc(-c3ccc(Cl)cc3)n2)cc1
activation (light increase): inactive

COC(=O)c1ccc(C2C(C(C)=O)=C(O)C(=O)N2CCO)cc1 (stereo not given)
activation (light increase): inactive

Cc1ccc(S(=O)(=O)NCCC(=O)OCC(=O)N(Cc2ccccc2)C(C)(C)C)cc1C
activation (light increase): inactive

Cc1ccc(S(=O)(=O)N2Cc3ccccc3CC2C(=O)Nc2ccc3c(c2)OCO3)cc1 (stereo not given)
activation (light increase): inactive

Cc1cc(=O)oc2ccc(OCc3ccccc3)cc12
activation (light increase): inactive

O=C(NCCS(=O)(=O)N1CCN(c2ccccc2)CC1)c1ccco1
activation (light increase): inactive

CC(=O)c1c(N2CCC(C(N)=O)CC2)nc(=S)n(-c2ccccc2)c1C
activation (light increase): inactive

C[C@@H]1CN([C@@H](C)CO)C(=O)c2cccc(NC(=O)Nc3ccc4c(c3)OCO4)c2O[C@H]1CN(C)S(=O)(=O)c1ccccc1
activation (light increase): inactive

CCOC(=O)C1=C(C)NC(SC)=NC1c1ccc(OC)cc1 (stereo not given)
activation (light increase): inactive

O=C(/C=C/c1ccc(OCCCF)cc1)NCc1ccc(Cl)cc1
activation (light increase): inactive

CC(C)CC(=O)N1CCN(Cc2ccccc2Br)CC1
activation (light increase): inactive

COc1cccc(CNC(=O)COC(=O)CN(C)S(=O)(=O)c2ccc(NC(C)=O)cc2)c1
activation (light increase): inactive

CN(C)C(=O)CCSc1nnc(-c2ccco2)o1
activation (light increase): inactive

COc1ccccc1CNC(=O)c1ccc(S(=O)(=O)N(C)c2ccccc2)cc1
activation (light increase): inactive

C[C@@H]1CN([C@@H](C)CO)C(=O)c2cccc(NC(=O)C3CC3)c2O[C@H]1CN(C)S(=O)(=O)c1cccs1
activation (light increase): inactive

O=C(O)c1[nH]c2ccccc2c1NS(=O)(=O)Cc1ccccc1
activation (light increase): inactive

COc1ccc2c(c1OC)C(=O)N(c1nccs1)C2
activation (light increase): inactive

CCOC(=O)c1c(NC(=O)c2cccs2)sc(C)c1CC
activation (light increase): inactive

Cc1cc(N2CCC(C)CC2)nc2ccc(N3C(=O)CCC3=O)cc12
activation (light increase): inactive

CCN(C(=O)COc1ncnc2ccc(Br)cc12)C1CCS(=O)(=O)C1 (stereo not given)
activation (light increase): inactive

O=C(Cc1ccc2c(c1)CCCC2)Nc1ccccc1Br
activation (light increase): inactive

Cc1cccc(OC(C)C(=O)NC2CCS(=O)(=O)C2)c1C (stereo not given)
activation (light increase): inactive

COCCNC(=O)CN1CCN(C(c2ccccc2)c2ccccc2)CC1
activation (light increase): inactive

CC(=O)Nc1ccc(NS(=O)(=O)c2cn(C)cn2)cc1
activation (light increase): inactive

COc1cc(SC)ccc1C(=O)OCC(=O)NC1CCCC1
activation (light increase): inactive

COc1ccc(Cl)cc1NC(=O)COC(=O)c1ccc(C)o1
activation (light increase): inactive

COc1c(C)cccc1C(=O)Nc1ccc(OCC(=O)N2CCOCC2)cc1C
activation (light increase): inactive

O=C(O)c1cc(CN2CCOCC2)oc1-c1ccccc1
activation (light increase): inactive

Cc1ccc(N(C(C)C(=O)N2CCCCC2)S(C)(=O)=O)cc1C (stereo not given)
activation (light increase): inactive

COc1ccc(NS(=O)(=O)c2cccc(C(=O)N3CCCC(C)C3)c2)cc1 (stereo not given)
activation (light increase): inactive

COc1ccc2[nH]c(=O)c(CNc3ccc(C)c(C)c3)cc2c1
activation (light increase): inactive

COc1ccc(Cl)cc1NC(=O)CN(C)C(=O)CNC(=O)C12CC3CC(CC(C3)C1)C2
activation (light increase): inactive

Cc1noc(C)c1NC(=O)Nc1cccc2c1O[C@H](CN(C)S(=O)(=O)c1cccs1)[C@@H](C)CN([C@@H](C)CO)C2=O
activation (light increase): inactive

Cc1noc(C)c1NC(=O)Nc1cccc2c1O[C@H](CN(C)S(=O)(=O)c1ccccc1)[C@@H](C)CN([C@H](C)CO)C2=O
activation (light increase): inactive

CC(C)CCN1CC(C(=O)N2CCN(c3ccc(F)cc3)CC2)CC1=O (stereo not given)
activation (light increase): inactive

CCn1c(SCC(=O)Nc2ccc3c(c2)OCCO3)nnc1-c1ccccn1
activation (light increase): inactive

CCc1sc(N(C(=O)Cc2ccccc2)c2cccc(F)c2)nc1-c1ccc(C)cc1
activation (light increase): inactive

Cc1onc(-c2ccccc2)c1C(=O)N1CCOCC1
activation (light increase): inactive

Cc1onc(-c2ccccc2)c1C(=O)n1cccn1
activation (light increase): inactive

CCCn1nnnc1NCc1ccc(OC)cc1OC
activation (light increase): inactive

NC(=O)c1cc(Br)cc(C2CCCCC2)c1O
activation (light increase): inactive

CN(CC(=O)Nc1ccccc1Cl)C(=O)c1cccc(-n2cccc2)c1
activation (light increase): inactive

CC(=O)N1CCN(C(=O)c2cc(-c3ccc(Cl)s3)nc3ccccc23)CC1
activation (light increase): inactive

CCC(=O)c1coc2ccc(O)cc12
activation (light increase): inactive

CCC(C)Cn1c(S(=O)(=O)O)nc2ccccc21 (stereo not given)
activation (light increase): inactive

Cc1ccc(/C=C/C(=O)OCC(=O)NCCc2ccc(S(N)(=O)=O)cc2)o1
activation (light increase): inactive

Cc1cc2c(ncn2C)c(NS(=O)(=O)c2cc(Cl)ccc2Cl)c1C
activation (light increase): inactive

Cc1ccc2occ(C(c3nnnn3Cc3ccccc3)N3CCOCC3)c(=O)c2c1 (stereo not given)
activation (light increase): inactive

Cc1onc(-c2ccccc2)c1C(=O)Nc1nc2c(s1)CCCC2
activation (light increase): inactive

CCOc1ccccc1N(CC(=O)Nc1ccc2c(c1)OCCO2)S(C)(=O)=O
activation (light increase): inactive

CCN(CC(=O)Nc1ccccc1C(F)(F)F)C(=O)CN1C(=O)NC(C)(c2ccc3ccccc3c2)C1=O (stereo not given)
activation (light increase): inactive
